In patent US20210261570A1, “ANTIBIOTIC RESISTANCE BREAKERS” (KING'S COLLEGE LONDON, priority 2017, published 2021):
Converted amounts (≈) assume the structure as drawn. “And” between values parts separate entries of the source, which are not always exact repeats. Equal entries are not always repeated. Where two headings read alike, the source gives them in different places.

Assays:
[1] = test system: multidrug resistant strains; test: Reserpine growth assay in several multidrug resistant strains; format: cell-based; conditions: FIG. 27
Procedure: Reserpine was added at a final concentration of 10 g/mL (made up at 40 μg/mL in TSB, 50 μL per well). The bacteria were added at an OD of 0.01 in TSB (100 μL/well). The plate was a normal clear plate as used for MICs. OD was read every 30 minutes for 9 hours (the literature states 7 hours, but this is strain-dependent). Blanks of TSB and water were added to ensure no infections were present.

EMRSA16 = test: MIC, microdilution broth method; format: cell-based, Staphylococcus aureus; conditions: EMRSA16
S. aureus SA 215 = test: MIC, MDR strains with target mutations; format: cell-based; conditions: in µg/mL
S. aureus SA 105 = format: cell-based; conditions: in µg/mL
[2] = Single dose pharmacokinetics study, oral and intravenous, blood and urine; format: in vivo; conditions: mouse; for Cmax: read-out: Co/Cmax
Procedure: ICR breed Mice (CD-1® IGS mice) were used in these studies and was supplied by Charles River (Margate UK) and. The mice were allowed to acclimatise for at least 7 days before starting the study. Treatments was administered by oral route or intravenous route according to the table below. For the PK study, 12 mice for each compound for oral route and 12 mice per compound for the intravenous route was treated. Mice was sequentially bled from a caudal vein into a 20 μL capillary (by agreement containing an anticoagulant) at different time as indicated in table below and a terminal bleed by cardiac puncture at 8 h after administration. Samples collected by capillary was directly transferred into a 96 well and mixed with 20 μL of water, then frozen and store at −80° C. until bioanalysis. Mice for urine collection was housed singly in metabolic cages and urine collected at 0-1, 1-2, 2-4 h and 4-8 h post administration. Urine removed from the collection vessels in the metabolic cages and were frozen and store at −80° C. until bioanalysis. 12 mice were used for urine collection. […] A compound specific LC-MS/MS method was developed for each test compound and samples was quantified using matrix matched calibrators. Samples was prepared for bio-analysis via protein precipitation. Concentration vs time data and non-compartmental analysis was utilised to determine relevant PK parameters e.g. CL, Vss, t1/2, AUCinf AUCo-t, Cmax, tmax, % F, % dose in urine and CLR.

S. aureus SA 238 = test: MIC, MDR strains with target mutations; format: cell-based
S. aureus SA 046 = test: MIC, MDR strains with target mutations; format: cell-based
S. aureus SA 282 = test: MIC, MDR strains with target mutations; format: cell-based
S. aureus SA 275 = test: MIC, MDR strains with target mutations; format: cell-based; conditions: S. aureus SA 275 (gyrA, 84: S => V)
S. aureus SA 454 = test: MIC, MDR strains with target mutations; format: cell-based
[3] = test system: Staphylococcus aureus ATCC29213; test: Murine model of thigh infection (neutropenic ICR mice); conditions: for decrease of thigh bacterial burden compared to vehicle group: 8 h and 14 h post infection
Excerpt: 40 Male mice used in these study were supplied by Charles River UK and were specific pathogen free. The strain of mouse used was Hsd:ICR (CD-1®), which is a well characterized outbred strain. Mice were 11-15 g on receipt at Evotec's facility and were allowed to acclimatize for minimum of 7 days prior to infection. Mice were approximately 28 g at the start of the study. Mice were housed in sterile individual ventilated cages exposing animals at all times to HEPA filtered sterile air. Mice had free access to food and water (sterile) and had sterile aspen chip bedding. The room temperature was 22° C.±1° C., with a relative humidity of 50-60% and maximum background noise of 56 dB. Mice were exposed to 12 hour light/dark cycles with dawn/dusk phases.
All mice were rendered neutropenic by immunosuppression with cyclophosphamide at 150 mg/kg 4 days before infection and then 100 mg/kg 1 day before infection administered by intraperitoneal injection. The immunosuppression regime leads to neutropenia starting 24 hours post administration of the first injection, which continues throughout the study. Mice were infected approximately 24 hours after the second dose of immunosuppressive agent.
Staphylococcus aureus ATCC29213 was used for the study.
Whilst still under anaesthesia mice were administered a single dose of buprenorphine (0.03 mg/kg) subcutaneously for pain relief.
Test articles and comparator were prepared in stock solutions at 10× concentration as described in Table 20. The stock solutions were prepared in aliquots (1 aliquot per time of dosing) and frozen at −20° C. The solutions were thawed and then diluted in water just before dosing to obtain the appropriate concentration of 5 mg/mL or 2 mg/mL for oral administration at 10 mL/kg of the dose of 50 mg/kg or 20 mg/kg respectively (Table 20). 10% DMSO in water was used as the vehicle
After sacrifice of animal, both posterior thighs were removed, weighed, then homogenised in 2 mL PBS using a Precellys bead beater and the homogenates individually quantitatively cultured on CLED agar to determine the bacterial burdens.
The data from the culture burdens were analysed using appropriate non-parametric statistical models (Kruskal-Wallis using Conover-Inman to make all pairwise comparisons between groups) with StatsDirect software v. 2.7.8., and compared to pre-treatment and vehicle controls.

EMRSA15 = test: MIC, microdilution broth method; format: cell-based, Staphylococcus aureus; conditions: EMRSA15; in µg/mL
[4] = test system: S. aureus SA275 (gyrA, 84: S => L); test: MIC, MDR strains with target mutations; format: cell-based; conditions: Table 11 second entry
S. aureus SA 318 = format: cell-based
S. aureus USA300 = test: MIC; format: cell-based; conditions: Staphylococcus aureus
S. aureus SA 388 = format: cell-based
E. faecium EF 205 = format: cell-based
E. faecalis EF 602 = format: cell-based
VRE12201 = test: MIC, microdilution broth method; format: cell-based, E. faecalis; conditions: VRE12201; Gram-positive; in µg/mL
S. aureus SH1000 = test: MIC; format: cell-based; conditions: Staphylococcus aureus
[5] = ICR (CD-1 IGS), in vivo, iv, 5 mg/kg
[6] = ICR (CD-1 IGS), in vivo, po, 20 mg/kg
[7] = ICR (CD-1 IGS), in vivo, iv, 5.0 mg/kg, blood, Composite Mean

C[C@H]1COc2c(N3CC[C@@H](Nc4ncccn4)C3)c(F)cc3c(=O)c(C(=O)O)cn1c23 [KSN-L22, (S)-9-fluoro-3-methyl-7-oxo-10-((R)-3-(pyrimidin-2-ylamino)pyrrolidin-1-yl)-2,3-dihydro-7H-[1,4]oxazino[2,3,4-ij]quinoline-6-carboxylic Acid]
efflux from the bacteria (reserpine growth assay) [1]: reduced efflux
MIC (EMRSA16): 1 µg/mL (≈ 2.35 µM)
MIC (S. aureus SA 215): 1
MIC (S. aureus SA 105): 1
clearance ([2]; ICR (CD-1 IGS), in vivo, iv, 5.0 mg/kg, blood, Composite Mean, read-out: Blood CL): 12.5 mL/min/kg
AUC(0-inf) [2, 5]: 6690 ng·h/mL
AUC(0-inf) [2, 6]: 13200 ng·h/mL
Bioavailability (%) Using AUCinf [2, 6]: 49.3%
Bioavailability (%) Using AUCo. t [2, 6]: 32.0%
CL_F [2, 6]: 26.4 mL/min/kg
T1/2 ([2]; PO, 20.0 mg/kg, blood, Mean): 5.1 h
Vdss ([2]; iv, 5.0 mg/kg, blood, Composite Mean): 1.4 L/kg
MIC (S. aureus SA 238): 1 µg/mL (≈ 2.35 µM)
MIC (S. aureus SA 046): 1 µg/mL (≈ 2.35 µM)
MIC (S. aureus SA 282): 1 µg/mL (≈ 2.35 µM)
MIC (S. aureus SA 275): 1 µg/mL (≈ 2.35 µM)
MIC (S. aureus SA 454): 1 µg/mL (≈ 2.35 µM)
thigh bacterial burden, result in words ([3]; 20 and 50 mg/kg, 18 h post infection): statistically significant reduction of bacterial load
MIC (EMRSA15): 0.5-1
MIC [4]: 1 µg/mL (≈ 2.35 µM)

C[C@H]1COc2c(N3CCN(C)CC3)c(F)cc3c(=O)c(C(=O)O)cn1c23 [Levofloxacin, levofloxacin]
MIC (S. aureus SA 318): 16 µg/mL (≈ 44.3 µM)
MIC (EMRSA16; Gram-positive): 16 µg/mL (≈ 44.3 µM)
MIC (S. aureus SA 215): 32 and 16
MIC (S. aureus SA 105): 8-16
Cmax ([2]; ICR (CD-1 IGS), in vivo, PO, 20.0 mg/kg, blood, Mean): 2950 ng/mL
half-life [2, 7]: 0.5 h
Cmax [2, 7]: 3890 ng/mL
AUC [2, 5]: 3090 ng·h/mL and 8.55 µM·h
AUC(0-inf) [2, 5]: 3310 ng·h/mL and 9.19 µM·h
MRT [2, 5]: 3 h
Vd [2, 5]: 4.5 L/kg
clearance [2, 5]: 25.2 mL/min/kg
AUC [2, 6]: 4260 ng·h/mL and 11.8 µM·h
AUC(0-inf) [2, 6]: 5390 ng·h/mL and 14.9 µM·h
Bioavailability (%) Using AUCo. t [2, 6]: 34.5%
Tmax [2, 6]: 0.5 h
T1/2 ([2]; PO, 20.0 mg/kg, blood, Mean): 5.7 h
MIC (S. aureus USA300): 8 µg/mL (≈ 22.1 µM)
MIC (S. aureus SA 238): 32 µg/mL (≈ 88.6 µM)
MIC (S. aureus SA 046): 16 µg/mL (≈ 44.3 µM)
MIC (S. aureus SA 388): 16 µg/mL (≈ 44.3 µM)
MIC (E. faecium EF 205): > 32 µg/mL
MIC (E. faecalis EF 602): > 32 µg/mL
MIC (VRE12201): 0.5-1
MIC (S. aureus SA 454): 8 µg/mL (≈ 22.1 µM)
MIC (S. aureus SH1000): 2 to 4 µg/mL (≈ 5.53 to 11.1 µM)
decrease of thigh bacterial burden compared to vehicle group ([3]; 20 mg/kg/dose oral at 2 h, 18 h post infection): ~5 log10 CFU/g
decrease of thigh bacterial burden compared to vehicle group ([3]; 50 mg/kg/dose oral at 2 h, 18 h post infection): ~5 log10 CFU/g
body weights following infection ([3]; in vivo): unchanged
Statistic analysis of thigh burden, P versus ML-83-009 20 mg/kg ([3]; substance at 20 mg/kg): P = 0.0003
Statistic analysis of thigh burden, P versus ML-83-009 50 mg/kg ([3]; substance at 20 mg/kg): P = 0.0058
Statistic analysis of thigh burden, P versus Vehicle ([3]; substance at 20 mg/kg): P < 0.0001
Statistic analysis of thigh burden, P versus ML-83-009 20 mg/kg ([3]; substance at 50 mg/kg): P < 0.0001
Statistic analysis of thigh burden, P versus ML-83-009 50 mg/kg ([3]; substance at 50 mg/kg): P < 0.0001
Statistic analysis of thigh burden, P versus Pre treatment ([3]; substance at 50 mg/kg): P = 0.0084
Statistic analysis of thigh burden, P versus Vehicle ([3]; substance at 50 mg/kg): P < 0.0001
